Where a chain is given by its changes, count along the chain named.
What was measured:
[1] = target: T1, β-glucocerebrosidase Wild Type (WT) (Homo sapiens, UniProt P04062); assay: β-glucocerebrosidase activity enhancement, Wild Type (WT); format: cell-based; conditions: increase in enzyme activity vs non-treated cells; for Activity WT: commercially available compounds
T1 construct: endogenous in cells
T1 sequence (P04062 40-536): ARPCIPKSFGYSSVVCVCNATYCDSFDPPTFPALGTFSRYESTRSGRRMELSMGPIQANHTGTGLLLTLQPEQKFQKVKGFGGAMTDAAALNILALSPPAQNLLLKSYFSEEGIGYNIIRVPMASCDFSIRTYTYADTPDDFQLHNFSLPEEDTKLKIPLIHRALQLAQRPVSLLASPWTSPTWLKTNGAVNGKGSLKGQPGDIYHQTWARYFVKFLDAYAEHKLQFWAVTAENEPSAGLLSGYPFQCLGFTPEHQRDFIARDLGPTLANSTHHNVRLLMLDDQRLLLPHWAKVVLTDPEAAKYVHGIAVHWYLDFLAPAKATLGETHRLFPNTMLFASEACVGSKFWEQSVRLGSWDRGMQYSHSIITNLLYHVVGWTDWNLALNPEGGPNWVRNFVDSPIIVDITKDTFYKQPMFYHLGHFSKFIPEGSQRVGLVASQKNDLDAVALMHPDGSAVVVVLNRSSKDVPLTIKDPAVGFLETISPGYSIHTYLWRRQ
Protocol: (§1) Fibroblasts were seeded at 5×10^3 cells per well in 96-well cell culture plates (Corning, N.Y., USA) in Dulbecco's Modified Eagle's Media (DMEM) supplemented with 10% of fetal bovine serum (FBS), 1% penicillin/streptomycin (P/S) (Thermo Fisher Scientific, Waltham, Mass., USA) and grown at 37° C., 5% CO2 overnight for cell attachment. Subsequently, cells were incubated in the absence or presence of the compounds at the desired concentration for 4 days. After incubation, cells were washed twice with phosphate-buffered saline (PBS) and enzyme activity assay was performed.
(§2) β-glucocerebrosidase activity in intact cultured cells was measured by using 4-methylumbelliferyl-β-D-glucopyranoside substrate (Apollo Scientific, UK). Briefly, cells were incubated with 4-MU-β-D-glucopyranoside in 0.1 M acetate buffer pH=4 at 37° C. for 1 hour. […] The liberated 4-MU was measured on a GloMax Discover plate reader (Promega, Madison, Wis., USA) with and excitation at 340 nm and emission at 460 nm. Enzyme activities were expressed in treated cells as X-fold increase in comparison with non-treated cells (X=1 represents no enhancement).
(§3) The following compounds listed in Table 2 were purchased (from Enamine, Princeton, Asinex, Vistas-M, and OSSK_541352) and tested in the assay as described above.

[2] = target: T2, β-glucocerebrosidase, p.L444P mutation (GM08760A fibroblasts) (Homo sapiens, UniProt P04062, L483P); assay: Enhancement of β-glucocerebrosidase activity measured in Gaucher disease fibroblasts (L444P); format: cell-based; conditions: increase in enzyme activity vs non-treated cells, GBA fibroblasts bearing L444P
T2 construct: host or cells: human Gaucher patient fibroblasts GM08760A, homozygous L444P
T2 sequence (P04062 40-536 L483P): T1 sequence (P04062 40-536) with L444P
Protocol: Enhancement of β-Glucocerebrosidase Activity Measured in Gaucher Disease Fibroblasts Materials
Human fibroblasts from a patient with Gaucher disease homozygous for p.L444P mutation (GM08760A) were purchased from Coriell Institute for Medical Research (Camden, N.J., USA).
as §1, §2
The capacity of the compounds of the disclosure to produce an increase in enzyme activity in GBA fibroblasts bearing L444P at concentrations between 6 and 50 μM is denoted as follows:
as §3

[3] = commercially available compounds, 6-50 μM, 4 days
[4] = concentrations between 6 and 50 μM, 4 days incubation

Row | Structure (SMILES) | Activity WT [1] | Activity L444P [2, 3] | Activity Wild Type (WT) [1] | Activity L444P [2, 4]
1 | CCN(Cc1ccccc1)C(C)c1nc(N)nc(Nc2ccccc2)n1 (centres unmarked) [6-(1-(benzyl(ethyl)amino)ethyl)-N2-phenyl-1,3,5-triazine-2,4-diamine] | B (Increase in comparison with non-treated of >1.7-2.0 fold is shown as B) | B (Increase in comparison with non-treated of >1.7-2.0 fold is shown as B) | – | –
2 | Cc1ccc(Nc2nc(N)nc(CN3CCc4ccccc4C3)n2)cc1 [6-((3,4-dihydroisoquinolin-2(1H)-yl)methyl)-N2-(p-tolyl)-1,3,5-triazine-2,4-diamine] | B (Increase in comparison with non-treated of >1.7-2.0 fold is shown as B) | B (Increase in comparison with non-treated of >1.7-2.0 fold is shown as B) | – | –
3 | Cc1ccc(Nc2nc(N)nc(CN3CCCc4ccccc43)n2)cc1 [6-((3,4-dihydroquinolin-1(2H)-yl)methyl)-N2-(p-tolyl)-1,3,5-triazine-2,4-diamine] | C (Increase in comparison with non-treated of 1.2-1.7 fold is shown as C) | C (Increase in comparison with non-treated of 1.2-1.7 fold is shown as C) | – | –
4 | Nc1nc(CN2CCN(c3cccc(Cl)c3)CC2)nc(Nc2ccc3c(c2)OCCO3)n1 [6-((4-(3-chlorophenyl)piperazin-1-yl)methyl)-N2-(2,3-dihydrobenzo[b][1,4]dioxin-6-yl)-1,3,5-triazine-2,4-diamine] | C (Increase in comparison with non-treated of 1.2-1.7 fold is shown as C) | B (Increase in comparison with non-treated of >1.7-2.0 fold is shown as B) | – | –
5 | Cc1ccc(Nc2nc(N)nc(CN3CCN(Cc4ccc5c(c4)OCO5)CC3)n2)cc1 [6-((4-(benzo[d][1,3]dioxo1-5-ylmethyl)piperazin-1-yl)methyl)-N2-(p-tolyl)-1,3,5-triazine-2,4-diamine] | B (Increase in comparison with non-treated of >1.7-2.0 fold is shown as B) | C (Increase in comparison with non-treated of 1.2-1.7 fold is shown as C) | – | –
6 | CCc1ccc(CN(C)Cc2nc(N)nc(Nc3ccc(C)cc3)n2)cc1 [6-(((4-ethylbenzyl)(methyl)amino)methyl)-N2-(p-tolyl)-1,3,5-triazine-2,4-diamine] | B (Increase in comparison with non-treated of >1.7-2.0 fold is shown as B) | C (Increase in comparison with non-treated of 1.2-1.7 fold is shown as C) | – | –
7 | Cc1ccc(Nc2nc(N)nc(CN(C)c3ccc4ccccc4c3)n2)cc1 [6-((methyl(naphthalen-2-yl)amino)methyl)-N2-(p-tolyl)-1,3,5-triazine-2,4-diamine] | C (Increase in comparison with non-treated of 1.2-1.7 fold is shown as C) | A (Increase in comparison with non-treated of >2.0 fold is shown as A) | – | –
8 | Cc1ccc(Nc2nc(N)nc(CN(C)c3ccccc3)n2)cc1 [Example 1, 6-((Methyl(phenyl)amino)methyl)-N^2-(p-tolyl)-1,3,5-triazine-2,4-diamine] | – | – | B (Increase in comparison with non-treated of >1.7-2.0 fold is shown as B) | C (Increase in comparison with non-treated of 1.2-1.7 fold is shown as C)
9 | COc1cccc(Nc2nc(N)nc(CN(C)c3ccccc3)n2)c1 [Example 3] | – | – | B (Increase in comparison with non-treated of >1.7-2.0 fold is shown as B) | C (Increase in comparison with non-treated of 1.2-1.7 fold is shown as C)
10 | Cc1ccc(Nc2nc(N)nc(CN(C)Cc3ccccc3)n2)cc1 [Example 4, 6-((Benzyl(methyl)amino)methyl)-N^2-p-tolyl-1,3,5-trizine-2,4-diamine] | – | – | A (Increase in comparison with non-treated of >2.0 fold is shown as A) | C (Increase in comparison with non-treated of 1.2-1.7 fold is shown as C)
11 | CN(Cc1ccccc1)Cc1nc(N)nc(Nc2ccc(Br)cc2)n1 [Example 5, 6-((Benzyl(methyl)amino)methyl)-N^2-(4-bromophenyl)-1,3,5-triazine-2,4-diamine] | – | – | C (Increase in comparison with non-treated of 1.2-1.7 fold is shown as C) | C (Increase in comparison with non-treated of 1.2-1.7 fold is shown as C)
12 | COc1ccc(Nc2nc(N)nc(CN(C)Cc3ccccc3)n2)cc1 [Example 6, 6-((Benzyl(methyl)amino)methyl)-N^2-(4-methoxyphenyl)-1,35-triazine-2,4-diamine] | – | – | B (Increase in comparison with non-treated of >1.7-2.0 fold is shown as B) | B (Increase in comparison with non-treated of >1.7-2.0 fold is shown as B)
13 | CN(Cc1ccccc1)Cc1cc(Nc2ccc3cnccc3c2)nc(N)n1 [Example 31, 6-((Benzyl(methyl)amino)methyl)-N^4-(isoquinolin-6-yl)pyrimidine-2,4-diamine] | – | – | A (Increase in comparison with non-treated of >2.0 fold is shown as A) | –
14 | Cc1ccc(Nc2cc(CN(C)Cc3cccnc3)nc(N)n2)cc1 [Example 61, 6-((Methyl(pyridin-3-ylmethyl)amino)methyl)-N^4-p-tolylpyrimidine-2,4-diamine] | – | – | – | C (Increase in comparison with non-treated of 1.2-1.7 fold is shown as C)
15 | COc1ccccc1Nc1cc(N)nc(CN(C)Cc2ccccc2)n1 [Example 63, 2-((Benzyl(methyl)amino)methyl)-N^4-(2-methoxyphenyl)pyrimidine-4,6-diamine] | – | – | – | C (Increase in comparison with non-treated of 1.2-1.7 fold is shown as C)
16 | COc1ccc(Nc2cc(N)nc(CN(C)Cc3ccccc3)n2)cc1 [Example 66, 2-((Benzyl(methyl)amino)methyl)-N^4-(4-methoxyphenyl)pyrimidine-4,6-diamine] | – | – | – | B (Increase in comparison with non-treated of >1.7-2.0 fold is shown as B)
17 | COc1ccccc1Nc1nc(N)cc(CN2CCc3ccccc3C2)n1 [Example 71, (6-((3,4-Dihydroisoquinolin-2(1H)-yl)methyl)-N-(2-methoxyphenyl)pyrimidine-2,4-diamine)] | – | – | – | C (Increase in comparison with non-treated of 1.2-1.7 fold is shown as C)
18 | COc1ccccc1Nc1nc(N)nc(CN(C)Cc2ccc3ccccc3c2)n1 [N2-(2-methoxyphenyl)-6-((methyl(naphthalen-2-ylmethyl)amino)methyl)-1,3,5-triazine-2,4-diamine] | – | B (Increase in comparison with non-treated of >1.7-2.0 fold is shown as B) | – | –
19 | CN(Cc1cccc(F)c1)Cc1nc(N)nc(Nc2ccc(Cl)cc2)n1 [N2-(4-chlorophenyl)-6-(((3-fluorobenzyl)(methyl)amino)methyl)-1,3,5-triazine-2,4-diamine] | – | C (Increase in comparison with non-treated of 1.2-1.7 fold is shown as C) | – | –
20 | Nc1nc(CN2CCCC2c2ccccc2)nc(Nc2ccc(F)cc2)n1 (centres unmarked) [N2-(4-fluorophenyl)-6-((2-phenylpyrrolidin-1-yl)methyl)-1,3,5-triazine-2,4-diamine] | – | B (Increase in comparison with non-treated of >1.7-2.0 fold is shown as B) | – | –
